Experimental findings from patent US9539141B2, “System and method for ocular iontophoresis with buffering” (Eyegate Pharmaceuticals, Inc., priority 2008, dated 2017) are described below.

The nature of this data set: pH of aqueous solution at dosing concentration. As to conditions: aqueous solution at dosing concentration of 40 mg/mL.

On to `C[C@@H]1C[C@H]2[C@@H]3CCC4=CC(=O)C=C[C@]4(C)[C@@]3(F)[C@@H](O)C[C@]2(C)[C@@]1(O)C(=O)COP(=O)(O)O` [dexamethasone phosphate], for which the “pH of aqueous solution” value is 5.7.
